{"source": "patent US20250215029A1", "about": "(Recludix Pharma, Inc., priority 2022, published 2025)", "key": {"[1]": {"biological_target": "T1, Recombinant STAT3 protein (STAT3 (G127-I722)) (Homo sapiens, UniProt P40763)", "T1 construct": "Recombinant STAT3 protein (STAT3 (G127-I722))", "T1 sequence (P40763 127-722)": "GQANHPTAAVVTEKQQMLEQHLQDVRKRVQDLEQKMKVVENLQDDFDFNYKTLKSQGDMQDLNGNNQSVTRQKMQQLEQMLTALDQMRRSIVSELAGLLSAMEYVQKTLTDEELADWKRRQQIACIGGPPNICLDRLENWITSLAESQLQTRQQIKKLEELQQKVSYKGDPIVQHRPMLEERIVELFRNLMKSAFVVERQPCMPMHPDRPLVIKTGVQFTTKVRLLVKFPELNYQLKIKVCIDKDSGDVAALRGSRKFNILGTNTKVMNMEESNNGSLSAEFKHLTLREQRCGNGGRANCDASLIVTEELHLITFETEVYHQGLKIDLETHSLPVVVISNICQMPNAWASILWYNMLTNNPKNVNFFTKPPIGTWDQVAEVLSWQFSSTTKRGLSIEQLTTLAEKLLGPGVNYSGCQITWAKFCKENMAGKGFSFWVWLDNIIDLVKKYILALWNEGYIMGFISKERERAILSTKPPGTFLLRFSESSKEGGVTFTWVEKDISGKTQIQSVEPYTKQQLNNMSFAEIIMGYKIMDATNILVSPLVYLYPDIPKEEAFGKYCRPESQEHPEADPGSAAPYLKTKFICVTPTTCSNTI", "assay": "STAT3 Fluorescence Polarization (FP) Assay", "type": "binding", "settings": "STAT3 (G127-I722) 25 nM, probe 5-FAM-GpYLPQTV-NH2 2 nM, 45-minute incubation; read-out: STAT3 (FP assay IC50 class)", "in_short": "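Displacement of a 2 nM 5-FAM-labelled pY peptide (GpYLPQTV) from 25 nM recombinant STAT3 (G127-I722) was monitored by fluorescence polarization. Incubation lasted 45 min at room temperature in pH 7.4 HEPES buffer containing 1% DMSO.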"}, "[2]": {"biological_target": "T2, Recombinant STAT6 protein (STAT6 (W123-T658)) (Homo sapiens, UniProt P42226)", "T2 construct": "Recombinant STAT6 protein (STAT6 (W123-T658))", "T2 sequence (P42226 123-658)": "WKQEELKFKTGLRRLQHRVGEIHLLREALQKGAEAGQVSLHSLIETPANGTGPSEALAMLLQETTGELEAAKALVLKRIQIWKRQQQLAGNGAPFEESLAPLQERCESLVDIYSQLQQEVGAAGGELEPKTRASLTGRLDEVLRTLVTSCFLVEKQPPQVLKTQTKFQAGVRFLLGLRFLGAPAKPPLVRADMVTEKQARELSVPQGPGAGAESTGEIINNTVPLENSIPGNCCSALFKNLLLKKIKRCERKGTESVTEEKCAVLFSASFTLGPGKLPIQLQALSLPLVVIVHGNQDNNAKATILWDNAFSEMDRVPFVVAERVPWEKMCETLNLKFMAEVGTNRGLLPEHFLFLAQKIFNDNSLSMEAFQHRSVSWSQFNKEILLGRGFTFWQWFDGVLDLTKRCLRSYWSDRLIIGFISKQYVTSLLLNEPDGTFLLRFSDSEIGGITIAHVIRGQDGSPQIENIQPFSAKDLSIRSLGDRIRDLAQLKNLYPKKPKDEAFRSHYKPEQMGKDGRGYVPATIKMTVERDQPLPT", "assay": "STAT6 Fluorescence Polarization (FP) Assay", "type": "binding", "settings": "STAT6 (W123-T658) 250 nM, probe 5-FAM-Ap[…]-NH2 2 nM, 45-minute incubation; read-out: STAT6 (FP assay IC50 class)", "in_short": "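Fluorescence polarization (mP) read-out: 250 nM STAT6 (W123-T658) plus 2 nM 5-FAM phosphotyrosine peptide, 45 min, room temperature, 1% DMSO. IC50 by nonlinear fit of mP against log compound concentration.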"}}}
{"molecule": "Cn1cc(F)c(N2C(=O)N(C(=O)[C@@H]3CC[C@@H]4CCCC[C@H](NC(=O)c5cc6cc(C(F)P(=O)(O)O)ccc6s5)C(=O)N43)C3(CC3)C2=O)cc1=O", "note": "(stereo partly drawn) [Compound 581, (fluoro(2-(((3S,6S,10aS)-3-(6-(5-fluoro-1-methyl-2-oxo-1,2-dihydropyridin-4-yl)-5,7-dioxo-4,6-diazaspiro[2.4]heptane-4-carbonyl)-5-oxodecahydropyrrolo[1,2-a]azocin-6-yl)carbamoyl)benzo[b]thiophen-5-yl)methyl)phosphonic acid]", "values": [{"measurement": "IC50", "setting": "[1]", "value": "1 to 10", "unit": "µM"}, {"measurement": "IC50", "setting": "[2]", "value": "0.3 to 3", "unit": "µM"}]}
{"molecule": "O=C(N[C@H]1CCC[C@H]2CC[C@@H](C(=O)N3CCC(c4ncncc4F)CC3)N2C1=O)c1cc2cc(C(F)P(=O)(O)O)ccc2s1", "note": "(stereo partly drawn) [Compound 582, (fluoro(2-(((3S,6S,9aS)-3-(4-(5-fluoropyrimidin-4-yl)piperidine-1-carbonyl)-5-oxooctahydro-1H-pyrrolo[1,2-a]azepin-6-yl)carbamoyl)benzo[b]thiophen-5-yl)methyl)phosphonic acid]", "values": [{"measurement": "IC50", "setting": "[1]", "value": "1 to 10", "unit": "µM"}, {"measurement": "IC50", "setting": "[2]", "value": "3 to 30", "unit": "µM"}]}
{"molecule": "O=C(N[C@H]1CCC[C@H]2CC[C@@H](C(=O)N3CC(c4ncncc4F)C3)N2C1=O)c1cc2cc(C(F)P(=O)(O)O)ccc2s1", "note": "(stereo partly drawn) [Compound 583, (fluoro(2-(((3S,6S,9aS)-3-(3-(5-fluoropyrimidin-4-yl)azetidine-1-carbonyl)-5-oxooctahydro-1H-pyrrolo[1,2-a]azepin-6-yl)carbamoyl)benzo[b]thiophen-5-yl)methyl)phosphonic acid]", "values": [{"measurement": "IC50", "setting": "[1]", "value": "0.1 to 1", "unit": "µM"}, {"measurement": "IC50", "setting": "[2]", "value": "3 to 30", "unit": "µM"}]}
{"molecule": "Cn1ccc(=O)c(C2CN(C(=O)[C@@H]3CC[C@@H]4CCC[C@H](NC(=O)c5cc6cc(CP(=O)(O)O)ccc6s5)C(=O)N43)C2)c1", "note": "[Compound 584, ((2-(((3S,6S,9aS)-3-(3-(1-methyl-4-oxo-1,4-dihydropyridin-3-yl)azetidine-1-carbonyl)-5-oxooctahydro-1H-pyrrolo[1,2-a]azepin-6-yl)carbamoyl)benzo[b]thiophen-5-yl)methyl)phosphonic acid]", "values": [{"measurement": "IC50", "setting": "[1]", "value": "1 to 10", "unit": "µM"}, {"measurement": "IC50", "setting": "[2]", "value": "3 to 30", "unit": "µM"}]}
{"molecule": "C[C@H]1CC[C@H](NC(=O)c2cc3cc(CP(=O)(O)O)ccc3s2)C(=O)N2[C@H](CC[C@H]2C(=O)N2CC(c3cnccc3F)C2)C1", "note": "[Compound 585, ((2-(((3S,6S,9S,10aR)-3-(3-(4-fluoropyridin-3-yl)azetidine-1-carbonyl)-9-methyl-5-oxodecahydropyrrolo[1,2-a]azocin-6-yl)carbamoyl)benzo[b]thiophen-5-yl)methyl)phosphonic acid]", "values": [{"measurement": "IC50", "setting": "[1]", "value": "< 0.1", "unit": "µM"}, {"measurement": "IC50", "setting": "[2]", "value": "3 to 30", "unit": "µM"}]}
{"molecule": "CC(C)n1ccc(N2C(=O)N(C(=O)[C@@H]3CC[C@@H]4CCCC[C@H](NC(=O)c5cc6cc(C(F)P(=O)(O)O)ccc6s5)C(=O)N43)C3(CC3)C2=O)cc1=O", "note": "(stereo partly drawn) [Compound 586, (fluoro(2-(((3S,6S,10aS)-3-(6-(1-isopropyl-2-oxo-1,2-dihydropyridin-4-yl)-5,7-dioxo-4,6-diazaspiro[2.4]heptane-4-carbonyl)-5-oxodecahydropyrrolo[1,2-a]azocin-6-yl)carbamoyl)benzo[b]thiophen-5-yl)methyl)phosphonic acid]", "values": [{"measurement": "IC50", "setting": "[1]", "value": "1 to 10", "unit": "µM"}, {"measurement": "IC50", "setting": "[2]", "value": "0.3 to 3", "unit": "µM"}]}
{"molecule": "O=C(N[C@H]1CCCC[C@H]2CC[C@@H](C(=O)N3CCC(c4n[nH]cc4F)CC3)N2C1=O)c1cc2cc(C(F)P(=O)(O)O)ccc2s1", "note": "(stereo partly drawn) [Compound 587, (fluoro(2-(((3S,6S,10aS)-3-(4-(4-fluoro-1H-pyrazol-3-yl)piperidine-1-carbonyl)-5-oxodecahydropyrrolo[1,2-a]azocin-6-yl)carbamoyl)benzo[b]thiophen-5-yl)methyl)phosphonic acid]", "values": [{"measurement": "IC50", "setting": "[1]", "value": "1 to 10", "unit": "µM"}, {"measurement": "IC50", "setting": "[2]", "value": "3 to 30", "unit": "µM"}]}
{"molecule": "O=C(N[C@H]1CCCC[C@H]2CC[C@@H](C(=O)N3CCC(c4ncncc4F)CC3)N2C1=O)c1cc2cc(C(F)P(=O)(O)O)ccc2s1", "note": "(stereo partly drawn) [Compound 588, (fluoro(2-(((3S,6S,10aS)-3-(4-(5-fluoropyrimidin-4-yl)piperidine-1-carbonyl)-5-oxodecahydropyrrolo[1,2-a]azocin-6-yl)carbamoyl)benzo[b]thiophen-5-yl)methyl)phosphonic acid]", "values": [{"measurement": "IC50", "setting": "[1]", "value": "1 to 10", "unit": "µM"}, {"measurement": "IC50", "setting": "[2]", "value": "3 to 30", "unit": "µM"}]}
{"molecule": "O=C(N[C@H]1CCCC[C@H]2CC[C@@H](C(=O)N3CCC(c4cc[nH]n4)CC3)N2C1=O)c1cc2cc(C(F)P(=O)(O)O)ccc2s1", "note": "(stereo partly drawn) [Compound 589, ((2-(((3S,6S,10aS)-3-(4-(1H-pyrazol-3-yl)piperidine-1-carbonyl)-5-oxodecahydropyrrolo[1,2-a]azocin-6-yl)carbamoyl)benzo[b]thiophen-5-yl)fluoromethyl)phosphonic acid]", "values": [{"measurement": "IC50", "setting": "[1]", "value": "1 to 10", "unit": "µM"}, {"measurement": "IC50", "setting": "[2]", "value": "3 to 30", "unit": "µM"}]}
{"molecule": "O=C(N[C@H]1CCCC[C@H]2CC[C@@H](C(=O)N3CCC(c4ccncn4)CC3)N2C1=O)c1cc2cc(C(F)P(=O)(O)O)ccc2s1", "note": "(stereo partly drawn) [Compound 590, (fluoro(2-(((3S,6S,10aS)-5-oxo-3-(4-(pyrimidin-4-yl)piperidine-1-carbonyl)decahydropyrrolo[1,2-a]azocin-6-yl)carbamoyl)benzo[b]thiophen-5-yl)methyl)phosphonic acid]", "values": [{"measurement": "IC50", "setting": "[1]", "value": "1 to 10", "unit": "µM"}, {"measurement": "IC50", "setting": "[2]", "value": "3 to 30", "unit": "µM"}]}
{"molecule": "O=C(N[C@H]1CCC[C@H]2CC[C@@H](C(=O)N3CCC(c4n[nH]cc4F)CC3)N2C1=O)c1cc2cc(C(F)P(=O)(O)O)ccc2s1", "note": "(stereo partly drawn) [Compound 591, (fluoro(2-(((3S,6S,9aS)-3-(4-(4-fluoro-1H-pyrazol-3-yl)piperidine-1-carbonyl)-5-oxooctahydro-1H-pyrrolo[1,2-a]azepin-6-yl)carbamoyl)benzo[b]thiophen-5-yl)methyl)phosphonic acid]", "values": [{"measurement": "IC50", "setting": "[1]", "value": "1 to 10", "unit": "µM"}, {"measurement": "IC50", "setting": "[2]", "value": "3 to 30", "unit": "µM"}]}
{"molecule": "O=C(N[C@H]1CCC[C@H]2CC[C@@H](C(=O)N3CC(c4cc(F)ccc4F)C3)N2C1=O)c1cc2cc(C(F)P(=O)(O)O)ccc2s1", "note": "(stereo partly drawn) [Compound 592, ((2-(((3S,6S,9aS)-3-(3-(2,5-difluorophenyl)azetidine-1-carbonyl)-5-oxooctahydro-1H-pyrrolo[1,2-a]azepin-6-yl)carbamoyl)benzo[b]thiophen-5-yl)fluoromethyl)phosphonic acid]", "values": [{"measurement": "IC50", "setting": "[1]", "value": "0.1 to 1", "unit": "µM"}, {"measurement": "IC50", "setting": "[2]", "value": "3 to 30", "unit": "µM"}]}
{"molecule": "COc1cc(C(F)F)ncc1C1CN(C(=O)[C@@H]2CC[C@@H]3CCC[C@H](NC(=O)c4cc5cc(CP(=O)(O)O)ccc5s4)C(=O)N32)C1", "note": "[Compound 593, ((2-(((3S,6S,9aS)-3-(3-(6-(difluoromethyl)-4-methoxypyridin-3-yl)azetidine-1-carbonyl)-5-oxooctahydro-1H-pyrrolo[1,2-a]azepin-6-yl)carbamoyl)benzo [b]thiophen-5-yl)methyl) phosphonic acid]", "values": [{"measurement": "IC50", "setting": "[1]", "value": "1 to 10", "unit": "µM"}, {"measurement": "IC50", "setting": "[2]", "value": "3 to 30", "unit": "µM"}]}
{"molecule": "COc1ccnc(C(F)F)c1C1CN(C(=O)[C@@H]2CC[C@@H]3CCC[C@H](NC(=O)c4cc5cc(CP(=O)(O)O)ccc5s4)C(=O)N32)C1", "note": "[Compound 594, ((2-(((3S,6S,9aS)-3-(3-(2-(difluoromethyl)-4-methoxypyridin-3-yl)azetidine-1-carbonyl)-5-oxooctahydro-1H-pyrrolo[1,2-a]azepin-6-yl)carbamoyl)benzo [b]thiophen-5-yl)methyl) phosphonic acid]", "values": [{"measurement": "IC50", "setting": "[1]", "value": "1 to 10", "unit": "µM"}, {"measurement": "IC50", "setting": "[2]", "value": "3 to 30", "unit": "µM"}]}
{"molecule": "O=C(N[C@H]1CCC[C@H]2CC[C@@H](C(=O)N3CC(c4n[nH]cc4F)C3)N2C1=O)c1cc2cc(C(F)P(=O)(O)O)ccc2s1", "note": "(stereo partly drawn) [Compound 595, (fluoro(2-(((3S,6S,9aS)-3-(3-(4-fluoro-1H-pyrazol-3-yl)azetidine-1-carbonyl)-5-oxooctahydro-1H-pyrrolo[1,2-a]azepin-6-yl)carbamoyl)benzo [b]thiophen-5-yl)methyl) phosphonic acid]", "values": [{"measurement": "IC50", "setting": "[1]", "value": "0.1 to 1", "unit": "µM"}, {"measurement": "IC50", "setting": "[2]", "value": "3 to 30", "unit": "µM"}]}
{"molecule": "O=C(N[C@H]1CCC[C@H]2CC[C@@H](C(=O)N3CC(c4cncc(F)c4)C3)N2C1=O)c1cc2cc(C(F)P(=O)(O)O)ccc2s1", "note": "(stereo partly drawn) [Compound 596, (fluoro(2-(((3S,6S,9aS)-3-(3-(5-fluoropyridin-3-yl)azetidine-1-carbonyl)-5-oxooctahydro-1H-pyrrolo[1,2-a]azepin-6-yl)carbamoyl)benzo [b]thiophen-5-yl)methyl) phosphonic acid]", "values": [{"measurement": "IC50", "setting": "[1]", "value": "0.1 to 1", "unit": "µM"}, {"measurement": "IC50", "setting": "[2]", "value": "3 to 30", "unit": "µM"}]}
{"molecule": "CCOc1ccncc1C1CN(C(=O)[C@@H]2CC[C@@H]3CCC[C@H](NC(=O)c4cc5cc(C(F)P(=O)(O)O)ccc5s4)C(=O)N32)C1", "note": "(stereo partly drawn) [Compound 597, ((2-(((3S,6S,9aS)-3-(3-(4-ethoxypyridin-3-yl)azetidine-1-carbonyl)-5-oxooctahydro-1H-pyrrolo[1,2-a]azepin-6-yl)carbamoyl)benzo [b]thiophen-5-yl)fluoromethyl) phosphonic acid]", "values": [{"measurement": "IC50", "setting": "[1]", "value": "< 0.1", "unit": "µM"}, {"measurement": "IC50", "setting": "[2]", "value": "3 to 30", "unit": "µM"}]}
